# Test results as given in US8658659B2, “Substituted oxazole derivatives and their use as tyrosine kinase inhibitors” (AB Science, priority 2005, dated 2014).
row,melting point,SMILES
1,198 to 200 °C,"Cc1ccc(N2CCN(c3cccc(C(F)(F)F)c3)C2=O)cc1Nc1ncc(-c2ccncc2)o1 [Compound 015, 1-[4-Methyl-3-(5-pyridin-4-yl-oxazol-2-ylamino)-phenyl]-3-(3-trifluoromethyl-phenyl)-imidazolidin-2-one]"
2,138 °C,"Cc1ccc(C(=O)CCc2ccccc2)cc1Nc1ncc(-c2ccc(C#N)cc2)o1 [Compound 020, 4-{2-[2-Methyl-5-(3-phenyl-propionyl)-phenylamino]-oxazol-5-yl}-benzonitrile]"
3,157 °C,"Cc1ccc(C(=O)CCc2cccc(F)c2)cc1Nc1ncc(-c2ccc(C#N)cc2)o1 [Compound 021, 4-(2-{5-[3-(3-Fluoro-phenyl)-propionyl]-2-methyl-phenylamino}-oxazol-5-yl)-benzonitrile]"
4,202 °C,"Cc1ccc(NCC(=O)c2ccc(F)cc2)cc1Nc1ncc(-c2ccncc2)o1 [Compound 023, 1-(4-Fluoro-phenyl)-2-[4-methyl-3-(5-pyridin-4-yl-oxazol-2-ylamino)-phenylamino]-ethanone]"
5,> 260 °C,"CC(=O)c1ccc(C)c(Nc2ncc(-c3ccc(C(N)=O)cc3)o2)c1 [Compound 022, 4-[2-(5-Acetyl-2-methyl-phenylamino)-oxazol-5-yl]-benzamide]"
6,175 °C,"Cc1ccc(C(=O)CCc2ccc(F)cc2)cc1Nc1ncc(-c2ccc(C#N)cc2)o1 [Compound 019, 4-(2-{5-[3-(4-Fluoro-phenyl)-propionyl]-2-methyl-phenylamino}-oxazol-5-yl)-benzonitrile]"
7,218 °C,"Cc1ccc(N(C)CC(=O)c2ccc(C#N)cc2)cc1Nc1ncc(-c2ccncc2)o1 [Compound 025, 4-({Methyl-[4-methyl-3-(5-pyridin-4-yl-oxazol-2-ylamino)-phenyl]-amino}-acetyl)-benzonitrile]"
8,240 °C,"CC(=O)c1ccc(C)c(Nc2ncc(-c3ccc(C#N)cc3)o2)c1 [Compound 018, 4-[2-(5-Acetyl-2-methyl-phenylamino)-oxazol-5-yl]-benzonitrile]"
9,152 °C,"Cc1ccc(NCC(=O)c2ccccc2)cc1Nc1ncc(-c2ccncc2)o1 [Compound 026, 2-[4-Methyl-3-(5-pyridin-4-yl-oxazol-2-ylamino)-phenylamino]-1-phenyl-ethanone]"
10,230 °C,"Cc1ccc(N(C)CC(=O)c2ccc(F)cc2)cc1Nc1ncc(-c2ccncc2)o1 [Compound 024, 1-(4-Fluoro-phenyl)-2-{methyl-[4-methyl-3-(5-pyridin-4-yl-oxazol-2-ylamino)-phenyl]-amino}-ethanone]"
11,199 °C,"Cc1ccc(NCC(=O)c2ccc(F)cc2)cc1Nc1ncc(-c2ccc(C#N)cc2)o1 [Compound 027, 4-(2-{5-[2-(4-Fluoro-phenyl)-2-oxo-ethylamino]-2-methyl-phenylamino}-oxazol-5-yl)-benzonitrile]"
12,138 °C,"Cc1ccc(C(=O)CCc2ccccc2)cc1Nc1ncc(-c2ccncc2)o1 [Compound 017, 1-[4-Methyl-3-(5-pyridin-4-yl-oxazol-2-ylamino)-phenyl]-3-phenyl-propan-1-one]"

# Further lines, the compound ahead of its results:
row,SMILES,melting point
1,"Cc1ccc(NS(=O)(=O)Cc2ccccc2)cc1Nc1ncc(-c2ccncc2)o1 [Compound 001, N-[4-Methyl-3-(5-pyridin-4-yl-oxazol-2-ylamino)-phenyl]-C-phenyl-methane sulfonamide]",258 °C
2,"Cc1ccc(Nc2nc3cc(F)ccc3o2)cc1Nc1ncc(-c2ccncc2)o1 [Compound 009, N1-(5-Fluoro-benzooxazol-2-yl)-4-methyl-N3-(5-pyridin-4-yl-oxazol-2-yl)-benzene-1,3-diamine]",170 °C
3,"Cc1ccc(Nc2nc3ccccc3o2)cc1Nc1ncc(-c2cccnc2)o1 [Compound 004, N1-Benzooxazol-2-yl-4-methyl-N3-(5-pyridin-3-yl-oxazol-2-yl)-benzene-1,3-diamine]",238 °C
4,"CCS(=O)(=O)c1ccc2oc(Nc3ccc(C)c(Nc4ncc(-c5ccncc5)o4)c3)nc2c1 [Compound 007, N1-(5-Ethanesulfonyl-benzooxazol-2-yl)-4-methyl-N3-(5-pyridin-4-yl-oxazol-2-yl)-benzene-1,3-diamine]",252 °C
5,"Cc1ccc(N2CCN(c3cccc(C#N)c3)C2=O)cc1Nc1ncc(-c2ccc(C#N)cc2)o1 [Compound 012, 4-(2-{5-[3-(3-cyano-phenyl)-2-oxo-imidazolidin-1-yl]-2-methyl-phenylamino}-oxazol-5-yl)-benzonitrile]",> 260 °C
6,"Cc1ccc(Nc2nc3ccccc3s2)cc1Nc1ncc(-c2ccc(C#N)cc2)o1 [Compound 003, 4-{2-[5-(Benzothiazol-2-ylamino)-2-methyl-phenylamino]-oxazol-5-yl}-benzonitrile]",216 to 220 °C
7,"Cc1ccc(Nc2nc3ccccc3o2)cc1Nc1ncc(-c2ccc(C#N)cc2)o1 [Compound 002, 4-{2-[5-(Benzooxazol-2-ylamino)-2-methyl-phenylamino]-oxazol-5-yl}-benzonitrile]",236 °C
8,"Cc1ccc(Nc2nc3cc(Cl)ccc3o2)cc1Nc1ncc(-c2ccncc2)o1 [Compound 005, N1-(5-Chloro-benzooxazol-2-yl)-4-methyl-N3-(5-pyridin-4-yl-oxazol-2-yl)-benzene-1,3-diamine]",229 °C
9,"Cc1ccc(Nc2nc3ccc(F)cc3o2)cc1Nc1ncc(-c2ccncc2)o1 [Compound 010, N1-(6-Fluoro-benzooxazol-2-yl)-4-methyl-N3-(5-pyridin-4-yl-oxazol-2-yl)-benzene-1,3-diamine]",260 °C
10,"Cc1ccc(N2CCN(c3cccc(F)c3)C2=O)cc1Nc1ncc(-c2ccc(C#N)cc2)o1 [Compound 011, 4-(2-{5-[3-(3-Fluoro-phenyl)-2-oxo-imidazolidin-1-yl]-2-methyl-phenylamino}-oxazol-5-yl)-benzonitrile]",221 °C
11,"Cc1ccc(N2CCN(c3cccc(F)c3)C2=O)cc1Nc1ncc(-c2ccc(C(N)=O)cc2)o1 [Compound 013, 4-(2-{5-[3-(3-Fluoro-phenyl)-2-oxo-imidazolidin-1-yl]-2-methyl-phenylamino}-oxazol-5-yl)-benzamide]",> 260 °C
12,"Cc1ccc(Nc2nc3ccc(Cl)cc3o2)cc1Nc1ncc(-c2ccncc2)o1 [Compound 006, N1-(6-Chloro-benzooxazol-2-yl)-4-methyl-N3-(5-pyridin-4-yl-oxazol-2-yl)-benzene-1,3-diamine]",> 260 °C
